pIC50: −log10 of the molar value. No end group written: not given here.
How the values were obtained:
K^d = biological target: T1, K^d (Mus musculus, UniProt P01902); test: Measured peptide binding to K^d
T1 sequence (P01902 22-368): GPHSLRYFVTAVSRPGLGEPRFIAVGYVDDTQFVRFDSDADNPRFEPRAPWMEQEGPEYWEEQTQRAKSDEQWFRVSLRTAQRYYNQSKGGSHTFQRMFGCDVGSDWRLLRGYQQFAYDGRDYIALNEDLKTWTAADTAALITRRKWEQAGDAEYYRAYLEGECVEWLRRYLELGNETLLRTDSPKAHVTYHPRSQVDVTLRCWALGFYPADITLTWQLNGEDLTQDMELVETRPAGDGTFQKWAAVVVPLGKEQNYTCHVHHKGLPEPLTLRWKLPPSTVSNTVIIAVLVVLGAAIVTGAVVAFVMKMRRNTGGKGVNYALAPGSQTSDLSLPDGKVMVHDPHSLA
T1 sequence (P01887 21-119 partner): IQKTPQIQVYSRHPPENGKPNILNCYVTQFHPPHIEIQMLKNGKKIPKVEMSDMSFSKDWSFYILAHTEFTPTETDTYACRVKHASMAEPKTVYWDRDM
Method: Each line represents tumor growth in a single mouse (n = 5 mice per group). AUC for each group is plotted in the panel on the right. Data are presented as mean ± SD. P values were calculated using 1-way ANOVA test adjusted for multiple comparisons (Tukey’s multiple comparison test). c Several truncated versions of the 18-mer Ccdc85c^MUT peptide were tested in tumor rejection assay. BALB/cJ mice were immunized and tumor challenged. Each line represents tumor growth in a single mouse. Although mice were immunized with individual peptides, the data for multiple peptides are grouped into one with the composition of the peptides shown on the right. The tumor rejection data for individual peptides are shown in Supplementary Fig. 1. Tumor rejection score (TRS) for each neoepitope is shown in the yellow box, where five represents a complete tumor protection and zero means no tumor rejection. d On the left panel, total Area Under the Curve (AUC) scores for each group in B are plotted. […] Error bars represent standard deviation (SD). The P values corresponding to the comparison of TRS = 0 with TRSs 5.0, 4.0–4.5 and 3.0–3.3 were respectively <0.0001, <0.0001 and 0.0002. P values were calculated using 1-way ANOVA test adjusted for multiple comparisons. On the right, peptides with the highest and the lowest TRS are shown. e Targeted MS-based detection of TYIRPFETKVK and YIRPFETKVK among MHC I peptides eluted from BMDCs pulsed with the 18-mer Ccdc85c^MUT. Heavy labeled synthetic peptides were spiked into the peptide samples; the labeled amino acid is marked with a bold character and the mutation is in red. Matched peak lists for the “heavy” and “light” ions were extracted and monitored, while only single charge y ions were plotted. See Methods for details. f Predicted (by NetMHC4.0) and measured IC50 values of the binding of candidate precise neoepitopes of Ccdc85c^MUT to K^d are shown. […] The affinities of the MS/TRS predicted neoepitopes were also measured for D^d and L^d; measured affinities were below the level of detection.

D^d = test: Measured peptide binding to D^d; parameters: species or system mouse
Method: (§1) Each line represents tumor growth in a single mouse (n = 5 mice per group). AUC for each group is plotted in the panel on the right. Data are presented as mean ± SD. P values were calculated using 1-way ANOVA test adjusted for multiple comparisons (Tukey’s multiple comparison test). c Several truncated versions of the 18-mer Ccdc85c^MUT peptide were tested in tumor rejection assay. BALB/cJ mice were immunized and tumor challenged. Each line represents tumor growth in a single mouse. Although mice were immunized with individual peptides, the data for multiple peptides are grouped into one with the composition of the peptides shown on the right. The tumor rejection data for individual peptides are shown in Supplementary Fig. 1. […] P values were calculated using 1-way ANOVA test adjusted for multiple comparisons. […] Matched peak lists for the “heavy” and “light” ions were extracted and monitored, while only single charge y ions were plotted. See Methods for details. f Predicted (by NetMHC4.0) and measured IC50 values of the binding of candidate precise neoepitopes of Ccdc85c^MUT to K^d are shown. […] The affinities of the MS/TRS predicted neoepitopes were also measured for D^d and L^d; measured affinities were below the level of detection.

L^d = test: Measured peptide binding to L^d; parameters: species or system mouse
Method: as §1

H2-A^d = test: MHC II cell-surface density assay, H2-A^d; format: cell-based, mouse; details: NIH3T3 cells, flow cytometry 48 h after transduction; peptides adjusted to 12-mer with N-terminal glycines; MUT vs WT counterpart
Text: (§2) In order to determine if any peptides within Ccdc85c^MUT could be presented by MHC II molecules, we analyzed the interaction of H2-A^d and H2-E^d with […], […] and IRPFETKVK as well as their wild type counterparts, using a cell-surface density assay. In this assay, β-chains of H2-Ab1^d or H2-Eb1^d are expressed in fusion with the peptide of interest and the amount of cell-surface MHC II, as a measure of intrinsic stability of MHC II, is quantified in engineered conditions. The measured cell-surface MHC density correlates well with the actual affinity of the peptide to MHC II. […] This was observed when CD4 depletion was carried out during the priming phase alone (as in Supplementary Fig. 2b), or throughout the entire experiment including the effector phase (i.e. post tumor challenge).
(§3) MHC II-peptide binding analysis was conducted by cell-surface density assay[18] with modifications. […] Cell-surface expression of H2-A^d or H2-E^d and cytoplasmic expression of GFP in GFP^+ MHC^+ cells were measured by flow cytometry 48 h after the transduction, using the following antibodies: H2-A^d, anti-mouse I-A^d mAb with the dilution of 1:10, 20 μl per sample (39-10-8, BioLegend) or mouse IgG3 isotype control with the dilution of 1:100, 10 μl per sample (m078-3, clone 6A3, Medical & Biological Laboratories Co. Ltd.) and goat anti-mouse IgG3-PE with the dilution of 1:20, 15 μl per sample (sc-3767, Santa Cruz Biotechnology, Inc.); H2-E, anti-I-E^d mAb with the dilution of 1:40, 10 μl per sample (115002, 14-4-4 S, Thermo Fisher) or mouse IgG2a isotype control with the dilution of 1:10, 10 μl per sample (m076-3, clone 6H3, Medical & Biological Laboratories Co. Ltd.) and goat F(ab’)2 Anti-mouse Ig-PE with the dilution of 1:20, 20 μl per sample (1012-09, Southern Biotechnology Associates Inc.). The ratio of MHC MFI to GFP MFI (MHC/GFP) for each MHC II-peptide combination was calculated and normalized to the MHC/GFP for respective MHC II allele-G9 peptide. On each assay date, MHC/GFP for each MHC II-peptide combination was measured for three or four wells and their average was determined. […]

H2-E^d = test: MHC II cell-surface density assay, H2-E^d; format: cell-based, mouse; details: NIH3T3 cells, flow cytometry 48 h after transduction; peptides adjusted to 12-mer with N-terminal glycines; MUT vs WT counterpart
Text: as §2, §3

Meth A = test: Tumor rejection (immunization-challenge) assay; tumor growth AUC and tumor rejection score (TRS); format: in vivo, BALB/cJ mice; details: BALB/cJ mice immunized twice, CTLA4 blockade
Method: Each line represents tumor growth in a single mouse (n = 5 mice per group). AUC for each group is plotted in the panel on the right. Data are presented as mean ± SD. P values were calculated using 1-way ANOVA test adjusted for multiple comparisons (Tukey’s multiple comparison test). c Several truncated versions of the 18-mer Ccdc85c^MUT peptide were tested in tumor rejection assay. BALB/cJ mice were immunized and tumor challenged. Each line represents tumor growth in a single mouse. Although mice were immunized with individual peptides, the data for multiple peptides are grouped into one with the composition of the peptides shown on the right. The tumor rejection data for individual peptides are shown in Supplementary Fig. 1. Tumor rejection score (TRS) for each neoepitope is shown in the yellow box, where five represents a complete tumor protection and zero means no tumor rejection. d On the left panel, total Area Under the Curve (AUC) scores for each group in B are plotted. […] Error bars represent standard deviation (SD). […] P values were calculated using 1-way ANOVA test adjusted for multiple comparisons. […] Matched peak lists for the “heavy” and “light” ions were extracted and monitored, while only single charge y ions were plotted. See Methods for details. f Predicted (by NetMHC4.0) and measured IC50 values of the binding of candidate precise neoepitopes of Ccdc85c^MUT to K^d are shown. […] The affinities of the MS/TRS predicted neoepitopes were also measured for D^d and L^d; measured affinities were below the level of detection.
The mutation is heterozygous and the un-mutated as well as the mutated reads are detected in the transcripts. […] All mice were challenged with the Meth A cells, and tumor rejection was monitored (Fig. 1b upper panel). […]
Area under the curve (AUC) is used as a tool to measure tumor growth. Briefly, AUC was calculated by selecting “Curves & Regression” and then “Area under curve” from the “analyze” tool, using the Prism 5.0 (GraphPad). […]

splenic CD8 T cells = test: ELIspot for interferon γ of splenic CD8 T cells from immunized mice; format: cell-based, BALB/c mice; details: spleens seven days after second immunization; in vitro stimulation with immunizing 18-mer, 10 µM
Text: BALB/c mice were immunized with 18-mer peptides containing Ccdc85c^MUT as well as Ccdc85c^WT as described in Methods. Spleens were harvested seven days after the second immunization and splenic CD8 T cells tested by ELIspot for interferon γ production in response to stimulation in vitro with the peptides used for immunization. […] Since the CD8 response detected in vitro was so modest, CD8 response as detected in vivo in the tumor microenvironment became our focus.
Supplementary Fig. 3. CD8 response to Ccdc85cMUT and Ccdc85cWT peptides. BALB/c mice were immunized twice at a weekly interval with 18-mer peptides containing Ccdc85cWT (left) or Ccdc85cMUT (right) as described in Methods. Spleens were harvested seven days after the second immunization and CD8 T cells stimulated in vitro with the peptides (10 µM concentration) used for immunization, as indicated. CD8 cells were analyzed for release of interferon g. Each dot represents a single mouse. The P values were calculated using two tailed t-test. Data are presented as mean values +/- SD. […]

| Sequence | pIC50 (K^d; assay kind not described) | measured affinity for K^d (in words) (K^d) | measured affinity for D^d (D^d) | measured affinity for L^d (L^d) | binding of Ccdc85c^MUT versus Ccdc85c^WT to H2-IA (MHC/GFP normalized to G9) (H2-A^d) | binding of Ccdc85c^MUT versus Ccdc85c^WT to H2-IE (MHC/GFP normalized to G9) (H2-E^d) | tumor rejection (in words) (Meth A) | CD8 response (interferon γ ELIspot) (splenic CD8 T cells) |
| --- | --- | --- | --- | --- | --- | --- | --- | --- |
| TYIRPFETKV [TYIRPFETKV] | 6.61 |  |  |  |  |  |  |  |
| TYIRPFETKVK |  | very low or undetectable | very low or undetectable | very low or undetectable | No significant difference | No significant difference |  |  |
| IRPFETKVK [truncated version of the 18-mer Ccdc85c^MUT peptide] |  |  |  |  | No significant difference | No significant difference |  |  |
| DPSSTYIRPLETKVKLLD [un-mutated peptide, un-mutated 18-mer peptide of Ccdc85c] |  |  |  |  |  |  | failed to elicit protection | no CD8 response |
| YIRPFETKVK |  | very low or undetectable | very low or undetectable | very low or undetectable | No significant difference | No significant difference |  |  |
